Experimental data as given in US20110206638A1, “COMPOSITIONS AND METHODS FOR REDUCING THE MUTATION RATE OF VIRUSES” (priority 2010, published 2011).

Assays:
[1] = test system: subgenomic HCV replicon of genotype 1b (Con1), NS5A region; assay: NS5A sequencing of HCV RNA, mutation frequency in SgPC2 Con1 replicon cells (Example 1); format: cell-based, Hepatitis C virus; conditions: for dn/ds ratio: control 0.33; for Percentage of sites showing positive selection: control 2.36; for mutation frequency, nucleotide changes per site / amino acid changes per codon: SgPC2 Con1 replicon cells, once daily for 48 hrs, ethanol 0.5%; for mutation frequency, nucleotide changes per site: normalized by T7 baseline
Experimental: Huh7 cell clones (SgPC2 cells) supporting continuous replication of a subgenomic HCV replicon of genotype 1b (Con1 sequence) were used (Choi J. et al. (2004) Hepatology 39:81-89; Blight K J et al. (2000) Science 290:1972). The subgenomic replicons support HCV RNA replication but no virus is formed. The in vitro transcription, transfection of HCV RNA, and Huh7 human hepatoma cell culture were performed by methods known in the art and as previously described (Choi J. et al. (2004) Hepatology 39:81-89; Blight K J et al. (2000) Science 290:1972).
After various treatments, total RNAs were collected using Trizol (Invitrogen). Then, the NS5A region (nt. 4612 to 6013 of Con1 replicon) was reverse transcribed/amplified with AccuScript High Fidelity RT-PCR System (Stratagene). The cDNAs were cloned into pUC19 and sequenced at the Joint Genome Institute (Livermore, Calif.). Sequences were aligned against Con1(S11791) sequence, using BioEdit/MEGA 4.0 Molecular Evolutionary Genetics Analysis software.
To test whether ethanol can increase the mutation rate of HCV, SgPC2 Con1 replicon cells that support genotype 1b subgenomic HCV RNA replication (FIG. 2B) were incubated with ethanol (0.5%), BSO (amplifies the effects of endogenous ROS/RNS by decreasing the level of glutathione in the cell), H2O2 (100 μM), or acetaldehyde (10 μM) once daily for 48 hrs. Then, the RNAs were collected, and the NS5A region (nt. 4612 to 6013 of Con1 replicon) was reverse transcribed/amplified with AccuScript High Fidelity RT-PCR System (Stratagene). Then, the cDNAs were cloned into pUC19 and sequenced at the Joint Genome Institute (Livermore, Calif.). T7 HCV RNA transcript, initially used to transfect the Con1 cells, was also sequenced to assess the basal level of RNA heterogeneity, such as due to any heterogeneity of the DNA template prior to in vitro transcription as well as any errors generated during transcription and RT-PCR cloning. The experiments were focused on NS5A because of its moderate level of diversity and its role in viral replication as well as interferon resistance. Sequences were aligned against Con1(S1179I) sequence, using BioEdit/MEGA 4.0 Molecular Evolutionary Genetics Analysis software.

Con1 replicon cells = assay: 8-OHG oxidative RNA damage in SgPC2 Con1 replicon cells (ELISA); format: cell-based, human; conditions: for 8-OH-G in Con1 replicon (SgPC2) cells, daily treatment for 2 weeks: 0.1% ethanol, 5 μM acetaldehyde; for 8-OH-G in Con1 replicon (SgPC2) cells, daily treatment for 2 weeks / fold increase in 8-OHG content over the control: 20 μM BSO; for 8-OH-G in SgPC2 cells within 2 days: 0.5% ethanol, BSO; for fold increase in 8-OHG content over the control: 48 hrs, 0.5% (v/v) ethanol, 250 μM NiCl2 daily
Experimental: Total RNA was isolated using Trizol (Invitrogen) and analyzed for 8-OH-guanosine (8-OH-G) by northwestern, as described (Shan X et al. (2003) J. Neurosci. 23:4913-4921). Briefly, RNA was size-fractionated by agarose gel electrophoresis, transferred to a nylon membrane, blocked with 1% BSA, incubated sequentially with monoclonal anti-8-OH-G/dG antibodies (QED Bioscience, Inc.) and then with goat anti-mouse HRP-conjugated secondary antibody (Santa Cruz Biotechnology), and signals were detected, using an ECL kit (Amersham). In addition, RNA was digested with nuclease P1 (Sigma, US Biological) and alkaline phosphatase (Promega) and analyzed for 8-OH-G content using RNA Damage Kit (Cell Biolabs, Inc.), following manufacturer's protocols.
(§1) Total RNA was isolated using Trizol (Invitrogen) and analyzed for 8-OHG by ELISA. Briefly, RNA was incubated with 10 U DNase I (GE Healthcare), 10 U nuclease P1 (Sigma or US Biological), and 10 U alkaline phosphatase (Promega) and analyzed for 8-OHG content with RNA Damage Kit (Cell Biolabs, Inc.) and 8-OHG standards, following manufacturer's protocols.

[2] = test system: Huh7 cells transfected with JFH1 RNA; assay: 8-OHG oxidative RNA damage in Huh7 cells transfected with JFH1 RNA (ELISA); format: cell-based, human; conditions: 48 hr (0.5% ethanol, 20 μM BSO) and 2 weeks (0.1% ethanol, 20 μM BSO)
Experimental: as §1
HCV induces severe oxidative/nitrosative stress in the host by increasing the generation of reactive species. Thus, JFH1 strain of genotype 2a that supports complete replication cycle of HCV and produces infectious HCV in cell culture was used next to determine whether HCV was sufficient to induce oxidative RNA damage even in the absence of ethanol and BSO. Huh7 cells were transfected with JFH1 RNA and either exposed to 0.5% ethanol (v/v) or 20 μM BSO daily for 48 hrs, or to 0.1% ethanol (v/v) or 20 μM BSO with and without 5 μM dipyridyl or 1 mM GSH ester daily with a change of medium prior to each treatment for 2 weeks.

## CCO [Ethanol, ethanol]
[1]; 48 hrs
  amino acid changes, fold higher than the control group: ~24 fold
  nucleotide changes, fold higher than the control group: ~8 fold
  dn/ds ratio: 0.76
  Percentage of sites showing positive selection: 5.14%
[1]; 48 hrs, control approximately 2.7
  Ts/Tv ratio: 5.7
[1]; SNAP plot against codons, 48 hrs
  location of synonymous and nonsynonymous mutations in NS5A: clustered in the C-terminal half of NS5A
[1]
  mutation frequency, nucleotide changes per site: 1.33×10^−3 nucleotide changes per site
  amino acid changes per codon: 3.05×10^−3 amino acid changes per codon
Con1 replicon cells
  8-OH-G in Con1 replicon (SgPC2) cells, daily treatment for 2 weeks: significant increases
  8-OH-G in SgPC2 cells within 2 days: increased
  fold increase in 8-OHG content over the control: 34.9±1.2 fold
[2]
  8-OHG increased by HCV (JFH1): exacerbated

## CCCCS(=N)(=O)CCC(N)C(=O)O [BSO, L-buthionine-S,R-sulfoximine]
[1]; 48 hrs
  amino acid changes, fold higher than the control group: ~12 fold
  nucleotide changes, fold higher than the control group: about 4 fold
  dn/ds ratio: 0.59
  Percentage of sites showing positive selection: 6.42%
[1]
  mutation frequency, nucleotide changes per site: 6.74×10^−4 nucleotide changes per site
  amino acid changes per codon: 1.67×10^−3 amino acid changes per codon
Con1 replicon cells
  8-OH-G in Con1 replicon (SgPC2) cells, daily treatment for 2 weeks: significant increases
  8-OH-G in SgPC2 cells within 2 days: increased
  fold increase in 8-OHG content over the control: 23.4±1.5 fold
[2]
  8-OHG increased by HCV (JFH1): exacerbated
